Structures can show the parent of a compound that is named as a salt. ± gives the standard error.
Key:
621-102 (TSC2-deficient) = test: relative viability vs DMSO; higher = less cytotoxic; details: serum: 10% FBS, 72 h
621-103 (TSC2-rescued) = test: as above; details: serum: 10% FBS, 72 h
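Note: immortalized renal angiomyolipoma cells stably carrying empty vector or TSC2, dosed in 384-well plates in DMEM, viability normalized to vehicle-treated wells within each plate.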

Row | Structure (SMILES) | relative viability (621-102 (TSC2-deficient); 0.0001 µM) [%] | relative viability (621-102 (TSC2-deficient); 0.001 µM) [%] | relative viability (621-102 (TSC2-deficient); 0.01 µM) [%] | relative viability (621-102 (TSC2-deficient); 0.1 µM) [%] | relative viability (621-102 (TSC2-deficient); 1 µM) [%] | relative viability (621-102 (TSC2-deficient); 10 µM) [%] | relative viability (621-103 (TSC2-rescued); 0.0001 µM) [%] | relative viability (621-103 (TSC2-rescued); 0.001 µM) [%] | relative viability (621-103 (TSC2-rescued); 0.01 µM) [%] | relative viability (621-103 (TSC2-rescued); 0.1 µM) [%] | relative viability (621-103 (TSC2-rescued); 1 µM) [%] | relative viability (621-103 (TSC2-rescued); 10 µM) [%]
1 | O=C(NOCC(O)CO)c1cc(Br)c(F)c(F)c1Nc1ccc(I)cc1F (stereo not drawn) | 105 ± 4.9 | 99.7 ± 2.8 | 105.5 ± 0.56 | 106 ± 1.1 | 100 ± 1.4 | 93.7 ± 1.3 | 96.8 ± 0.31 | 95 ± 3 | 98.9 ± 1.2 | 93.54 ± 0.87 | 93.44 ± 0.33 | 74.3 ± 5.1
2 | O=C1CCc2cc(OCCCCc3nnnn3C3CCCCC3)ccc2N1 [Cilostazol] | 109 ± 1.2 | 102 ± 0.67 | 107.6 ± 0.99 | 109 ± 3 | 96.51 ± 0.85 | 101 ± 2.5 | 107.6 ± 0.22 | 100.9 ± 0.71 | 108 ± 1.6 | 104.6 ± 1 | 101 ± 3.3 | 97.51 ± 0.021
3 | NC(CO)C(=O)NNCc1ccc(O)c(O)c1O (stereo not drawn) [Benserazide HCl] | 98.1 ± 5.3 | 93.8 ± 2.6 | 103 ± 3.5 | 107 ± 1.3 | 106 ± 2.3 | 101 ± 1.4 | 108.8 ± 0.38 | 104 ± 2.7 | 110 ± 2.1 | 109.5 ± 0.88 | 114 ± 2.6 | 105 ± 3.1
4 | CC[C@]12C=CCN3CC[C@@]4(c5cc([C@@]6(C(=O)OC)C[C@@H]7C[C@@H](C(C)(F)F)CN(Cc8c6[nH]c6ccccc86)C7)c(OC)cc5N(C)[C@H]4[C@@](O)(C(=O)OC)[C@@H]1OC(C)=O)[C@@H]32 [Vinflunine Tartrate] | 91.28 ± 0.35 | 96.3 ± 1.4 | 64.68 ± 0.39 | 44.8 ± 3.1 | 32 ± 1.2 | 28.9 ± 0.74 | 99.3 ± 1.7 | 93 ± 2.6 | 66.9 ± 1.8 | 34.9 ± 1.6 | 29.8 ± 0.55 | 23.6 ± 0.65
5 | Clc1ccc(C(Cn2ccnc2)OCc2c(Cl)cccc2Cl)c(Cl)c1 (stereo not drawn) [Isoconazole] | 104 ± 1.2 | 107 ± 2.4 | 86.81 ± 0.67 | 108.4 ± 0.37 | 107 ± 1.4 | 100 ± 4.3 | 104 ± 2.4 | 109 ± 4 | 105 ± 1 | 103.2 ± 0.24 | 108 ± 1.4 | 95.32 ± 0.49
6 | O=c1[nH]c2ccccc2n1CCCN1CCC(n2c(=O)[nH]c3cc(Cl)ccc32)CC1 [Domperidone (Motilium)] | 102.7 ± 0.59 | 96 ± 10 | 95.3 ± 3.6 | 106 ± 1.3 | 98.8 ± 1.5 | 90.8 ± 2.7 | 99.17 ± 0.87 | 93.61 ± 0.19 | 103.3 ± 0.16 | 110 ± 2 | 101.1 ± 0.98 | 96.7 ± 2
7 | Nc1nc(F)nc2c1ncn2[C@@H]1O[C@H](COP(=O)(O)O)[C@@H](O)[C@@H]1O [Fludarabine Phosphate] | 98.1 ± 1.6 | 105 ± 1.1 | 101.7 ± 0.47 | 106 ± 1.9 | 96.4 ± 7.2 | 94 ± 1.7 | 104 ± 2.1 | 104 ± 2.7 | 103.3 ± 0.34 | 102.6 ± 0.82 | 100 ± 1.7 | 89.1 ± 6.1
8 | COc1cccc(Nc2c(C(N)=O)cnc3c(C)cc(S(=O)(=O)c4cccc(C(=O)N(C)C)c4)cc23)c1 | 105 ± 5 | 102 ± 2.6 | 97.2 ± 5.1 | 104 ± 2.7 | 97.1 ± 0.98 | 95.9 ± 2 | 104 ± 3.4 | 103.1 ± 0.49 | 102 ± 3.5 | 103.2 ± 0.47 | 95.9 ± 3.8 | 93.3 ± 3.2
9 | CC(C)C[C@@H](C=O)NC(=O)[C@H](CC(C)C)NC(=O)[C@H](CC(C)C)NC(=O)OCc1ccccc1 [MG-132] | 104 ± 2.3 | 102 ± 4 | 99.9 ± 1.6 | 94.63 ± 0.69 | 4.41 ± 0.73 | 1.52 ± 0.059 | 99.8 ± 3.3 | 93.4 ± 2.7 | 95.3 ± 4.2 | 53.7 ± 8.3 | 2 ± 0.3 | 1.393 ± 0.0089
10 | C[C@@H](Oc1cc(-c2cnn(C3CCNCC3)c2)cnc1N)c1c(Cl)ccc(F)c1Cl | 105.6 ± 0.81 | 97.3 ± 6.2 | 104 ± 2.6 | 106 ± 1.4 | 98 ± 2.9 | 10.7 ± 1.4 | 99.34 ± 0.12 | 102.8 ± 0.57 | 102 ± 1.5 | 103 ± 1.6 | 101.6 ± 0.21 | 5.36 ± 0.69
11 | Cc1ccc(Nc2nccc(N(C)c3ccc4c(C)n(C)nc4c3)n2)cc1S(N)(=O)=O [Pazopanib Hydrochloride] | 78.9 ± 0.89 | 104 ± 5.5 | 110 ± 5.6 | 114.4 ± 0.52 | 104.7 ± 0.87 | 82.2 ± 1.6 | 92.7 ± 4.2 | 99.2 ± 3.9 | 102 ± 1.2 | 102.1 ± 1 | 100.8 ± 0.29 | 55.9 ± 1.2
12 | N#Cc1ccc(C(c2ccc(C#N)cc2)n2cncn2)cc1 [Letrozole] | 130 ± 1.9 | 114 ± 5.8 | 114 ± 0.22 | 104 ± 5 | 113.3 ± 0.22 | 111 ± 1.2 | 103 ± 1.7 | 105 ± 2 | 103.5 ± 0.86 | 99.5 ± 1 | 102.6 ± 0.18 | 101 ± 1.1
13 | NC(=O)c1ccc(N(C(N)=O)c2c(F)cccc2F)nc1-c1ccc(F)cc1F [VX-702] | 107 ± 1.9 | 109 ± 1.9 | 96.7 ± 1.6 | 98.6 ± 1.4 | 111.1 ± 0.41 | 104 ± 4 | 101.5 ± 0.42 | 99.8 ± 1.8 | 99.92 ± 0.12 | 99.4 ± 1.5 | 96.56 ± 0.13 | 99.1 ± 1.8
14 | CN1[C@@H]2C[C@@H](OC(=O)[C@H](CO)c3ccccc3)C[C@H]1[C@@H]1O[C@@H]12 [Scopolamine hydrobromide] | 127 ± 2.7 | 119 ± 5.9 | 120 ± 2.6 | 112 ± 1.9 | 115.3 ± 1.1 | 108 ± 3.8 | 102 ± 4 | 99.3 ± 2 | 96.3 ± 2.5 | 99.3 ± 1.4 | 100 ± 2.1 | 102 ± 1.5
15 | CNC(C)C1CCC(N)C(OC2C(N)CC(N)C(OC3OCC(C)(O)C(NC)C3O)C2O)O1 (stereo not drawn) [Gentamycin sulfate (Gentacycol)] | 104 ± 4.4 | 109 ± 2.3 | 113 ± 2.6 | 109 ± 4.9 | 106.5 ± 0.17 | 91.9 ± 1.7 | 99.8 ± 1.9 | 89.3 ± 9.2 | 89.5 ± 1.6 | 94.13 ± 0.19 | 88.3 ± 7.1 | 96.9 ± 3.5
16 | Nc1cccc2c1CN(C1CCC(=O)NC1=O)C2=O (stereo not drawn) [Lenalidomide] | 107 ± 2.9 | 115 ± 1.9 | 113 ± 3 | 112 ± 2.1 | 109 ± 4.8 | 98.472 ± 0.068 | 101 ± 1.6 | 98.8 ± 1 | 100 ± 1.1 | 100.4 ± 0.81 | 100.5 ± 0.13 | 98.62 ± 0.12
17 | Cn1cc(C2=C(c3cn(C4CCN(Cc5ccccn5)CC4)c4ccccc34)C(=O)NC2=O)c2ccccc21 [Enzastaurin] | 110 ± 3 | 114 ± 1.6 | 107 ± 1.7 | 104 ± 2.2 | 106 ± 4.1 | 98.6 ± 6.9 | 104.1 ± 0.6 | 99.64 ± 0.22 | 102 ± 1.3 | 99.2 ± 0.55 | 102.1 ± 0.61 | 95.6 ± 1.9
18 | NC1=N[C@@]2(c3cc(NC(=O)c4ccc(F)cn4)ccc3F)COC[C@H]2CS1 | 105 ± 1.8 | 105 ± 1.3 | 105 ± 0.55 | 100 ± 1.3 | 99.9 ± 2 | 96.4 ± 1.9 | 101 ± 4.3 | 101 ± 3.9 | 100 ± 1.9 | 101 ± 2 | 99.2 ± 2.8 | 93.7 ± 1.1
19 | O=C(O[C@H]1C[C@H]2CC[C@@H](C1)[N+]21CCCC1)C(O)(c1ccccc1)c1ccccc1 [Trospium chloride (Sanctura)] | 116 ± 2.6 | 99.2 ± 1.8 | 110 ± 5.9 | 95.4 ± 6.1 | 112 ± 5 | 110 ± 3.5 | 82.71 ± 0.81 | 91.5 ± 2.9 | 93.15 ± 0.86 | 102 ± 3.1 | 98.6 ± 5.3 | 92.1 ± 4.1

— the supplement of paper PMC8960247
